Experimental data: ChEMBL document CHEMBL5150005, “Discovery of 5-{4-[(7-Ethyl-6-oxo-5,6-dihydro-1,5-naphthyridin-3-yl)methyl]piperazin-1-yl}-N-methylpyridine-2-carboxamide (AZD5305): A PARP1-DNA Trapper with High Selectivity for PARP1 over PARP2 and Other PARPs” (J Med Chem, 2021)
≈ marks a conversion by molar mass, not a printed value. Calls of active or inactive are those of the source. The rule behind the calls is not given here.

Assays:
[1] = in vitro; conditions: rat, plasma
[2] = Oral bioavailability in monkey; type: ADME, organism-based, Macaca mulatta; conditions: rhesus monkey, in vivo
[3] = Plasma clearance in dog; type: ADME, Canis lupus familiaris
[4] = Antitumor activity against patient derived explant HBCx-17 cells xenografted in mouse assessed as tumor regression administered daily at 10 mg/kg, po for 25 days relative to control; type: functional, Homo sapiens; conditions: time 25 day
[5] = in vitro; conditions: dog, plasma
[6] = biological target: Protein mono-ADP-ribosyltransferase PARP12 (Homo sapiens) (UniProt Q9H0J9)
Protein mono-ADP-ribosyltransferase PARP12 (Homo sapiens), sequence (Q9H0J9 whole entry): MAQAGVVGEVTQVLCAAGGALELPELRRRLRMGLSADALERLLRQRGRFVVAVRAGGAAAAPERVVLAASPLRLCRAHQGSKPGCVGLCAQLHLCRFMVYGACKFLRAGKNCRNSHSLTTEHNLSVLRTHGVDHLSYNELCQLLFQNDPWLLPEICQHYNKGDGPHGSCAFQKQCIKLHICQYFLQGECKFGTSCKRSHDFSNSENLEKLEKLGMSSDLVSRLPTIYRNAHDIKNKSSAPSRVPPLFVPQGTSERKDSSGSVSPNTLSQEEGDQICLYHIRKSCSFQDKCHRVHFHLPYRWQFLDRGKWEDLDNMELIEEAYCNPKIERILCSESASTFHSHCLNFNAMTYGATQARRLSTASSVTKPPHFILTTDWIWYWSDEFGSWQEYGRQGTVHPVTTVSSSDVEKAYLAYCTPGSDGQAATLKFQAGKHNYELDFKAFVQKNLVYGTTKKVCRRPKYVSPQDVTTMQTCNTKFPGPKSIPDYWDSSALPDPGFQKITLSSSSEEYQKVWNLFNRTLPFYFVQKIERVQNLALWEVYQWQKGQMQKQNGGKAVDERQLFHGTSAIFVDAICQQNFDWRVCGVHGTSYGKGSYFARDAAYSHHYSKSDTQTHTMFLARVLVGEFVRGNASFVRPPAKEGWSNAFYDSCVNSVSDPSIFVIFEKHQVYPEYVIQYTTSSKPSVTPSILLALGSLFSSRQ

[7] = Antitumor activity against patient derived explant HBCx-17 cells xenografted in mouse assessed as tumor regression administered daily at 0.03 mg/kg, po for 25 days relative to control; type: functional, Homo sapiens; conditions: time 25 day
[8] = biological target: Poly [ADP-ribose] polymerase tankyrase-1 (Homo sapiens) (UniProt O95271); assay: Binding affinity to PARP5a (unknown origin) assessed as apparent dissociation constant
Poly [ADP-ribose] polymerase tankyrase-1 (Homo sapiens), sequence (O95271 whole entry): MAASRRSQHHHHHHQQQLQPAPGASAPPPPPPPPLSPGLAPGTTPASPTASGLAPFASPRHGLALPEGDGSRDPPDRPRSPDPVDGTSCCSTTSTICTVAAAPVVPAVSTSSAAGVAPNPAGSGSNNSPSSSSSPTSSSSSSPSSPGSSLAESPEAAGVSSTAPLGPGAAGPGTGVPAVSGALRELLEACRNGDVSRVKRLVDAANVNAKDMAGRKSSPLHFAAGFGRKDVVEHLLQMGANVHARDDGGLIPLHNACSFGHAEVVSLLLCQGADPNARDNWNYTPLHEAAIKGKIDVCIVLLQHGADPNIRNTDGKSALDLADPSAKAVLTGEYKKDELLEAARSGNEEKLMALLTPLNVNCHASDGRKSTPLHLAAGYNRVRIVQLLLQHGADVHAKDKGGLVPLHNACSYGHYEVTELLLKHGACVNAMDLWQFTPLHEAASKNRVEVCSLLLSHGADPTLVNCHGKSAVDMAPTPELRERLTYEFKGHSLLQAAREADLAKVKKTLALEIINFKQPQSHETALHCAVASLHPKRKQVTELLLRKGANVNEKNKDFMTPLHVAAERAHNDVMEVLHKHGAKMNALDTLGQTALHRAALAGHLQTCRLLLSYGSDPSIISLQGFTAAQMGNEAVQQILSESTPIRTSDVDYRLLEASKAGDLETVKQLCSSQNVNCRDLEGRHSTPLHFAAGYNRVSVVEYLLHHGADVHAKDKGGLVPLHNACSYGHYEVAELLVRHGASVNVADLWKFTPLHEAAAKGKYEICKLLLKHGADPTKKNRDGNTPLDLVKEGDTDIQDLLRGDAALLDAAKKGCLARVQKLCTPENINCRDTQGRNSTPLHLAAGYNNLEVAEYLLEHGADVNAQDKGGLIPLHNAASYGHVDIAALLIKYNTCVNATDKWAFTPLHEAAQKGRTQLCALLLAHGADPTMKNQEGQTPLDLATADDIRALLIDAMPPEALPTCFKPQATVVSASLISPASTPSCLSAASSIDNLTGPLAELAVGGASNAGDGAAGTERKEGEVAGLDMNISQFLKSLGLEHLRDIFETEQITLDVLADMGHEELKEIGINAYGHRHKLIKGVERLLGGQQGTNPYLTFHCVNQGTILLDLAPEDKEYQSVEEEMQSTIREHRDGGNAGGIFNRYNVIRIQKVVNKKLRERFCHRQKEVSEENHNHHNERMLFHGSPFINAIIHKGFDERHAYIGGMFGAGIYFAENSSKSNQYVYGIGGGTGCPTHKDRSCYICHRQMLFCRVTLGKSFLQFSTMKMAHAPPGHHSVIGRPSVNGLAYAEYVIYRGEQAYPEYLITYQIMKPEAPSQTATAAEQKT

[9] = Volume of distribution at steady state in dog; type: ADME, Canis lupus familiaris; conditions: in vivo, read-out: Vdss
[10] = Volume of distribution at steady state in mouse; type: ADME, organism-based; conditions: in vivo, read-out: Vdss
[11] = Oral bioavailability in rat; type: ADME, organism-based; conditions: in vivo
[12] = biological target: T1, Protein mono-ADP-ribosyltransferase PARP8 (Homo sapiens) (UniProt Q8N3A8)
T1 sequence (whole entry): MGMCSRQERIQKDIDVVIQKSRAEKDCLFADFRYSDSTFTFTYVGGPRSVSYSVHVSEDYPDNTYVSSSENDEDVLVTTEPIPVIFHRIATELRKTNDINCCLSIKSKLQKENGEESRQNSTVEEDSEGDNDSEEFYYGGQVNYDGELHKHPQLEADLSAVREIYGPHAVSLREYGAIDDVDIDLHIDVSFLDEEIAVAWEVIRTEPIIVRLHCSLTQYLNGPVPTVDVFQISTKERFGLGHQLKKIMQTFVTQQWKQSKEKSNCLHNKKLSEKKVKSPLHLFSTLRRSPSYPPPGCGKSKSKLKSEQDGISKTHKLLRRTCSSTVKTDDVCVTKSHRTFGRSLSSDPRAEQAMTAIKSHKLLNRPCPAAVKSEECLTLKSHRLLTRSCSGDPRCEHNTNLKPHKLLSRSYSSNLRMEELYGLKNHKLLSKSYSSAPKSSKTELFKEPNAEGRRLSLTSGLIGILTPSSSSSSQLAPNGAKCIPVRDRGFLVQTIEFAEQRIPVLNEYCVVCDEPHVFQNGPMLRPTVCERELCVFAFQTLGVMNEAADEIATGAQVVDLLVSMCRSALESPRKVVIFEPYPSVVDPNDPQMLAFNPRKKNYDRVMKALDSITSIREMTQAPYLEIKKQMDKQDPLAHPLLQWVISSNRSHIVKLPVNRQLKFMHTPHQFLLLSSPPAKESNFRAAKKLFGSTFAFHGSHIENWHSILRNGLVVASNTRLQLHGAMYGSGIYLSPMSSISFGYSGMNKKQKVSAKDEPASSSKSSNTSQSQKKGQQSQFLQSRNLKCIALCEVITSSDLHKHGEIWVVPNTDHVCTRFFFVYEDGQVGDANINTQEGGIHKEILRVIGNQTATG

[13] = physchem; conditions: buffer, pH 7.4
[14] = Unbound clearance in mouse; type: ADME, organism-based; conditions: in vivo
[15] = Antitumor activity against patient derived explant HBCx-17 cells xenografted in mouse assessed as tumor regression administered daily at 1 mg/kg, po for 25 days relative to control; type: functional, Homo sapiens; conditions: time 25 day
[16] = Hematotoxicity in CD34+ hematopoietic stem/progenitor cells (unknown origin) assessed as reduction of cell viability treated for 5 days by cell-tire-Glo-2.0 luminescence based assay; type: toxicity, CD34-positive hematopoietic stem/progenitor cell; conditions: cd34-positive hematopoietic stem/progenitor cell, 120 h; DDE = dose-dependent effect; dose lower 1e-05 µM, dose upper 100 µM, time 5 day
[17] = Oral bioavailability in mouse; type: ADME, organism-based; conditions: in vivo
[18] = in vitro; conditions: rhesus monkey, plasma
[19] = Half life in dog; type: ADME, Canis lupus familiaris; conditions: in vivo
[20] = biological target: Protein mono-ADP-ribosyltransferase PARP14 (Homo sapiens) (UniProt Q460N5)
Protein mono-ADP-ribosyltransferase PARP14 (Homo sapiens), sequence (Q460N5 whole entry): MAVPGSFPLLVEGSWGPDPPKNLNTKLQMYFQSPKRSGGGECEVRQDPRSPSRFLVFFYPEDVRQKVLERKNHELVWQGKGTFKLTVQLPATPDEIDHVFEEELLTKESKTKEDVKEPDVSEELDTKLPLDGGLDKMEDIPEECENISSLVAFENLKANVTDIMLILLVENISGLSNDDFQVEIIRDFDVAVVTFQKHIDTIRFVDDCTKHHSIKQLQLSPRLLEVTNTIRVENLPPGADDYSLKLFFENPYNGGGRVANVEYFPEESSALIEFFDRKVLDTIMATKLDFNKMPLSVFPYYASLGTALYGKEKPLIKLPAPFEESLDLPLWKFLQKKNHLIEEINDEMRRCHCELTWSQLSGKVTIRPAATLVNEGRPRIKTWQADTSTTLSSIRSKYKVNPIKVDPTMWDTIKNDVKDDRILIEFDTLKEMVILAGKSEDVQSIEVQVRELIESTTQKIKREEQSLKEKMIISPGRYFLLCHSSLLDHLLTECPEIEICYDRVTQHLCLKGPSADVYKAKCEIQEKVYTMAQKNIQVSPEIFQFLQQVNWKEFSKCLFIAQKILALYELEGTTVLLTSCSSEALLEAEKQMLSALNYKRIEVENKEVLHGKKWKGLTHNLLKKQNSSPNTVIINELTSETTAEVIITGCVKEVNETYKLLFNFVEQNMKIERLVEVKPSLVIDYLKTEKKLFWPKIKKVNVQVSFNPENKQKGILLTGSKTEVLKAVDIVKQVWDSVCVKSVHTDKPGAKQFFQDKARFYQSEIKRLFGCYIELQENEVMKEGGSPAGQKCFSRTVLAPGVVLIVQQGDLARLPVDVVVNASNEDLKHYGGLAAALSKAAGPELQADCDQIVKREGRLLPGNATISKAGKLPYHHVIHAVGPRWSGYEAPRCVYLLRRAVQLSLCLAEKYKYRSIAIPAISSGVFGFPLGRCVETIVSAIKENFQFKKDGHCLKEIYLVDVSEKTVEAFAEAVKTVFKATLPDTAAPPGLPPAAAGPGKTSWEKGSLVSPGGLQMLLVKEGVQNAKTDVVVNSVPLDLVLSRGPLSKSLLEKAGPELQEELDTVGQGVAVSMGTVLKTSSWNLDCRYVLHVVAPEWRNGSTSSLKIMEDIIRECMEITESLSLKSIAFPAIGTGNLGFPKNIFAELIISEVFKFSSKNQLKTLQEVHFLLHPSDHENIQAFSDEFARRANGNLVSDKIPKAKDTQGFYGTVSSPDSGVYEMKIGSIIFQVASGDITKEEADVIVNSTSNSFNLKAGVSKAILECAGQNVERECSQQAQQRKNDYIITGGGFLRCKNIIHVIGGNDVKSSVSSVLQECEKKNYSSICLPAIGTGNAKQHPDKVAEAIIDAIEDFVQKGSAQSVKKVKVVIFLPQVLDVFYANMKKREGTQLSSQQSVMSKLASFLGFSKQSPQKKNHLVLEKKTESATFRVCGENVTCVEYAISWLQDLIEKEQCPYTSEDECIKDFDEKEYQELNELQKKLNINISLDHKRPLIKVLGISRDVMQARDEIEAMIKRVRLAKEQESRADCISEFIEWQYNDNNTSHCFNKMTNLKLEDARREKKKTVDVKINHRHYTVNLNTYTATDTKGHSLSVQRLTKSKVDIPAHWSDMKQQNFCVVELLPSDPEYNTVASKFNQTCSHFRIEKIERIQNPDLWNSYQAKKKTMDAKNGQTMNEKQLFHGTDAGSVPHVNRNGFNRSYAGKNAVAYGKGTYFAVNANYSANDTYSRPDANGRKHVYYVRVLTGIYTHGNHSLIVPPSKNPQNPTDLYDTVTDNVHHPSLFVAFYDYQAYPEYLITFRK

[21] = Volume of distribution at steady state in monkey; type: ADME, Macaca mulatta; conditions: rhesus monkey, in vivo; read-out: Vdss
[22] = Antitumor activity against patient derived explant HBCx-17 cells xenografted in mouse assessed as tumor regression administered daily at 0.1 mg/kg, po for 25 days relative to control; type: functional, Homo sapiens; conditions: time 25 day
[23] = biological target: Protein mono-ADP-ribosyltransferase PARP10 (Homo sapiens, UniProt Q53GL7); assay: Binding affinity to PARP10 (unknown origin) assessed as apparent dissociation constant; conditions: read-out: Kd(app)
[24] = Unbound clearance in rat; type: ADME; conditions: in vivo
[25] = biological target: Protein mono-ADP-ribosyltransferase PARP16 (Homo sapiens) (UniProt Q8N5Y8); assay: Binding affinity to PARP16 (unknown origin) assessed as apparent dissociation constant
Protein mono-ADP-ribosyltransferase PARP16 (Homo sapiens), sequence (Q8N5Y8 whole entry): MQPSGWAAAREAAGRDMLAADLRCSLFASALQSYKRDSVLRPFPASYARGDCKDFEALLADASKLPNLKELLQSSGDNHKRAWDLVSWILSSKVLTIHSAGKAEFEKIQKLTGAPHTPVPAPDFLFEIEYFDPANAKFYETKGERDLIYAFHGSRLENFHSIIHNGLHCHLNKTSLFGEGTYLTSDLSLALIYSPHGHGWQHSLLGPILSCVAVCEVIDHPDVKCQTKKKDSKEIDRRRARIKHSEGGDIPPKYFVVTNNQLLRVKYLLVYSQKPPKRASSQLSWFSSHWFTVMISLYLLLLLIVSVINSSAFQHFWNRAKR

[26] = Plasma clearance in mouse; type: ADME, organism-based
[27] = Volume of distribution at steady state in rat; type: ADME; conditions: in vivo, read-out: Vdss
[28] = in vitro; conditions: human, liver microsomes
[29] = Oral bioavailability in dog; type: ADME, organism-based, Canis lupus familiaris; conditions: in vivo
[30] = Plasma clearance in monkey; type: ADME, Macaca mulatta; conditions: rhesus monkey
[31] = Half life in rat; type: ADME; conditions: in vivo
[32] = Half life in mouse; type: ADME, organism-based; conditions: in vivo
[33] = Hematotoxicity in CD34+ hematopoietic stem/progenitor cells (unknown origin) assessed as remaining viable cells treated at 100 nM for 5 days by cell-tire-Glo-2.0 luminescence based assay relative to control; type: toxicity, CD34-positive hematopoietic stem/progenitor cell; conditions: time 5 day, read-out: Activity
[34] = Hematotoxicity in CD34+ hematopoietic stem/progenitor cells (unknown origin) assessed as reduction of cell viability treated at 3 nM for 5 days by cell-tire-Glo-2.0 luminescence based assay; type: toxicity; conditions: cd34-positive hematopoietic stem/progenitor cell, 120 h, 0.003 µM, time 5 day
[35] = biological target: Protein mono-ADP-ribosyltransferase PARP9 (Homo sapiens, UniProt Q8IXQ6)
[36] = tested on: DLD-1; assay: Antiproliferative activity against human DLD-1 deficient in BRCA-2 cells measured after 7 days; type: functional, cell-based; conditions: Homo sapiens, DLD-1, 168 h
[37] = biological target: Protein mono-ADP-ribosyltransferase PARP3 (Homo sapiens) (UniProt Q9Y6F1); assay: Binding affinity to PARP3 (unknown origin) assessed as apparent dissociation constant
Protein mono-ADP-ribosyltransferase PARP3 (Homo sapiens), sequence (Q9Y6F1 whole entry): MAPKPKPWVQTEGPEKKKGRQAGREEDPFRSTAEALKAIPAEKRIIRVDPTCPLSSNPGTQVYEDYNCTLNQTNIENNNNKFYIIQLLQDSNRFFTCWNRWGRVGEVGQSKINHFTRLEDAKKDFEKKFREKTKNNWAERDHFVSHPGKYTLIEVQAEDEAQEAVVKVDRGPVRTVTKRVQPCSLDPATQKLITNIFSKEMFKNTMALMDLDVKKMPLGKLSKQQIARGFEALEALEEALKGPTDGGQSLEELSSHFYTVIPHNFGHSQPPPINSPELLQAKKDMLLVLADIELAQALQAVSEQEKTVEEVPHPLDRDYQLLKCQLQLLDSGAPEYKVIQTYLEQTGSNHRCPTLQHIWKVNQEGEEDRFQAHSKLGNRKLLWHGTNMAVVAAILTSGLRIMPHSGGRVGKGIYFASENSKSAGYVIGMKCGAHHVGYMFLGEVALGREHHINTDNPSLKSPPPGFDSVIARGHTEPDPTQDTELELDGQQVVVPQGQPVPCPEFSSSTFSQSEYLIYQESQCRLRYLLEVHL

[38] = Unbound clearance in dog; type: ADME, Canis lupus familiaris; conditions: in vivo
[39] = Half life in monkey; type: ADME, Macaca mulatta; conditions: rhesus monkey, in vivo
[40] = Unbound clearance in monkey; type: ADME, Macaca mulatta; conditions: rhesus monkey, in vivo
[41] = biological target: Protein mono-ADP-ribosyltransferase PARP4 (Homo sapiens) (UniProt Q9UKK3); assay: Binding affinity to PARP4 (unknown origin) assessed as apparent dissociation constant
[42] = Aqueous solubility of the compound at pH 7.4; type: physicochemical; conditions: buffer
[43] = Plasma clearance in rat; type: ADME
[44] = Intrinsic clearance in human hepatocytes measured per million of cells; type: ADME, cell-based, Hepatocyte; conditions: read-out: CLH

## CCc1cc2ncc(CN3CCN(c4ccc(C(=O)NC)nc4)CC3)cc2[nH]c1=O [SARUPARIB]
[1]
  fraction unbound: 0.032
[2]
  bioavailability: 122%
[3]
  clearance: 0.35 mL/min/kg
[4]
  Activity: 84%
[5]
  fraction unbound: 0.17
[6]
  Kd(app): Active
[7]
  Activity: 23%
[8]
  Kd(app): Active
[9]
  Vd: 0.3 L/kg
[10]
  Vd: 0.17 L/kg
[11]
  bioavailability: 132%
[12]
  Kd(app): Active
[13]
  logD: 1.9
[14]
  CL free: 3.2 mL/min/kg
[15]
  Activity: 86%
[16]
  Activity: Dde
[17]
  bioavailability: 77%
[18]
  fraction unbound: 0.043
[19]
  half-life: 10 h
[20]
  Kd(app): Active
[21]
  Vd: 0.38 L/kg
[22]
  Activity: 73%
[23]
  Kd: > 10000 nM
[24]
  CL free: 34 mL/min/kg
[25]
  Kd(app): Active
[26]
  clearance: 0.23 mL/min/kg
[27]
  Vd: 0.38 L/kg
[28]
  microsomal CLint: < 3 µL/min/mg
[29]
  bioavailability: 73%
[30]
  clearance: 0.84 mL/min/kg
[31]
  half-life: 4.6 h
[32]
  half-life: 8 h
[33]
  viability at 120 h, 0.1 µM: 46%
[34]
  Activity: Toxic
[35]
  Kd(app): Active
[36]
  IC50: 2 nM
[37]
  Kd(app): Active
[38]
  CL free: 2.1 mL/min/kg
[39]
  half-life: 7.1 h
[40]
  CL free: 20 mL/min/kg
[41]
  Kd(app): Active
[42]
  solubility: 50 µM (≈ 20.3 µg/mL)
[43]
  clearance: 1.1 mL/min/kg
[44]
  hepatocyte CLint: < 1 µL/min/1e6 cells
